Test results as given in US20090130064A1, “DIFFERENTIATION OF STEM CELLS AND STABILIZATION OF PHENOTYPICAL PROPERTIES OF PRIMARY CELLS” (priority 2004, published 2009).

Columns and labels:
rat BMSC = experiment: DNA synthesis by [methyl-3H] thymidine incorporation in differentiating rat BMSC; format: cell-based
Description: [methyl-3H] thymidine (25 μCiμmol, 2 μCi/ml) incorporation into trichloroacetic acid precipitated-DNA (Amersham Inc) was measured.
BMSC were, 24 h after splitting; cultivated in the presence of LSP cytokines, added either as a cocktail or separately on 10 ng/ml FN at 2.465 10^3 cells/cm^2. […] Media were changed every three days. Samples were taken 2, 4, 6, 12 and 18 h after splitting or media change. Cells were stimulated for 2 h before sampling with 2 μCi [methyl-^3H] thymidine (Amersham Pharmacia Biotech)/ml medium. [methyl-^3H] thymidine incorporation was measured using a scintillation counter (Wallac 1410) with a counting efficiency of 62.4%.

CYP 2B1/2 = CYP 2B1/2 activity (penthoxyresorufin conversion) in cultured rat hepatocytes; format: cell-based
From the text: (§1) Hepatocytes were isolated from male Sprague-Dawley rats by a two-step collagenase perfusion as described (De Smet et al. In ‘Methods in Molecular Biology, Vol. 107: Cytochrome P450 Protocols’, Philips IR and Shephard E A, eds., p.p 295-301, Humana Press, Totowa, 1998). Hepatocytes were cultivated in monolayer cultures with Willam's E Medium (WE) for 7 days. […] The maintenance of differentiation characteristics was studied after 2, 4, and 7 days (D2, D4, D7) of culture.
Phase I biotransformation was assessed by means of activity measurements of the microsomal cytochrome P450 (CYP) 1A1 and 2B1/2 iso-enzymes, using standard techniques known in the art (i.e., measuring conversion of ethoxyresorufin into hydroxyresorufin for CYP 1A1 and conversion of penthoxyresorufin to hydroxyresorufin for CYP 2B1/2) (Burke et al. Drug Metab Dispos 2:583-588, 1974). Microsomes were prepared from freshly isolated and hepatocytes cultured for 7 days according to Hales et al. (Biochem Pharmacol 26:555-556, 1977).

C/EBPalpha = experiment: Western blotting of C/EBPalpha in primary hepatocytes; format: cell-based, rat; settings: 1 μM TSA added at 0h or 4 h; day 4 and 7
From the text: as §1
Western blotting was performed using standard techniques known in the art. Proteins (25 μg) were resolved on a 10% SDS-PAGE and blotted onto nitrocellulose membrane. The membranes were incubated with appropriate concentrations of primary and secondary antibodies. Proteins were detected using appropriate dilutions of primary and secondary antibodies. Detection was done using the ECL detection system (Amersham Pharmacia Biotech, UK) according to manufacturer's recommendations.

Pak1 = experiment: Western blotting of Pak1 in primary rat hepatocytes; format: cell-based; settings: 50 μM, sustained treatment, EGF-stimulated
From the text: Male outbred Sprague-Dawley rats (200-300 g, Iffa Credo, Brussels, Belgium) were kept under controlled environmental conditions (12-hr light-dark cycle) and fed a standard diet (Animafabo A04, water ad libitum). Hepatocytes were isolated by a two-step collagenase perfusion as described (De Smet et al. In ‘Methods in Molecular Biology, Vol. 107: Cytochrome P450 Protocols’, Philips I R and Shephard E A, eds., pp 295-301, Humana Press, Totowa, 1998). Cell liability was >90% as determined by trypan blue exclusion. Cells (0.4×10^5 cells/cm^2) were plated in MEM/M199 (3:1), containing BSA (1 mg/ml), bovine insulin (10 μg/ml), L-glutamine (2 mM), FBS (10% v/v) and antibiotics (7.3 IU/ml benzyl penicillin, 50 μg/ml streptomycin sulphate, 50 μg/ml kanamycin monosulphstep and 10 μg/ml sodium ampicillin). Four hours after plating, serum-containing medium was removed and fresh serum-free medium was added to the cultures. Culture medium was refreshed daily. […]
Total cell extracts were prepared as described previously (Papeleu et al. J Hepatol 39: 374-382, 2003) and proteins (25 or 50 μg per lane) were separated electrophoretically by SDS-PAGE and electroblotted onto nitrocellulose membranes (Amersham Pharmacia Biotech, Buckinghamshire, UK). […] Proteins were detected using the ECL detection system (Amersham Pharmacia Biotech, Buckinghamshire, UK) according to the manufacturer's recommendations.

[1] = 1 μM TSA first from 168 h cultivation on, sequential

| SMILES | cytotoxicity by microscopic analysis (rat BMSC) | cell death by microscopic analysis (rat BMSC; 1 μM TSA added from 24 and 96 h on, sequential) | [methyl-3H] thymidine incorporation (rat BMSC; [1]) | cell death by microscopic analysis (rat BMSC; [1]) | DNA synthesis compared with control (sequential without TSA) (rat BMSC; 1 μM TSA from 24, 96 and 168 h on, sequential LSP cytokines) | DNA synthesis compared with control (cocktail-TSA) (rat BMSC; 1 μM TSA from 24 and 96 h of cultivation on, cocktail of LSP cytokines) | cell death by microscopic analysis (rat BMSC; 1 μM TSA from 168 h, cocktail, day 7) | [methyl-3H] thymidine incorporation (DNA synthesis) (rat BMSC; 5 and 25 μM TSA) | [methyl-3H] thymidine incorporation (rat BMSC; first addition of 1 μM TSA from 168 h of cultivation on, cocktail) | activity of CYP 2B1/2 versus EtOH-treated controls (CYP 2B1/2; 1 μM TSA starting at 0 h or 4 h, day 4 and 7) | CYP 2B1 Activity (CYP 2B1/2; 7-day conventionally cultured adult rat hepatocytes, 1 μm TSA) | expression of C/EBPalpha (C/EBPalpha) | cellular levels of Pak1 (Pak1) |
| --- | --- | --- | --- | --- | --- | --- | --- | --- | --- | --- | --- | --- | --- |
| CC(C=CC(=O)NO)=CC(C)C(=O)c1ccc(N(C)C)cc1 (stereo not shown) [TSA] | cytotoxicity | cell death | no [methyl-^3H] thymidine incorporation | No death cells were observed | decrease of the DNA synthesis | increase of the DNA synthesis | no cell death had occurred | no incorporation | no [methyl-^3H] thymidine | significantly higher | 4.1 ± 0.7 pmol resorufin/minute mg microsomal protein | increase expression |  |
| CN(C)c1ccc(C(=O)NCCCCC(=O)NO)cc1 [4-Me2N-BAVAH, 5-(4-dimethylaminobenzoyl)-aminovaleric acid hydroxamide] |  |  |  |  |  |  |  |  |  |  |  |  | decrease in the cellular levels of Pak1 |
